Reference: patent US20250025459A1, “COVID-19 TREATMENT MEDICINE CHARACTERIZED BY COMBINING 3CL PROTEASE INHIBITOR AND COVID-19 TREATMENT DRUG” (priority 2021, published 2025)
Where two headings read alike, the source gives them in different places.

How the values were obtained:
SARS-CoV-2 = experiment: microbe, parasite or virus in culture; type: cell-based; conditions: Severe acute respiratory syndrome coronavirus 2, 72 h; VeroE6/TMPRSS2 cells, 100 TCID50/well, 3 days; class symbols
[1] = tested on: SARS-CoV-2 hCoV-19/Japan/TY/WK-521/2020; experiment: Combination effect confirmation test, VeroE6/TMPRSS2 cells, strain WK-521; type: cell-based; conditions: for EC50 of single agent: VeroE6/TMPRSS2, 3 days
[2] = tested on: SARS-CoV-2 hCoV-19/Japan/TY7-501/2021; experiment: Combination effect confirmation test, VeroE6/TMPRSS2 cells, strain TY7-501; type: cell-based
[3] = tested on: SARS-CoV-2 hCoV-19/Japan/TY11-927-P1/2021; experiment: Combination effect confirmation test, VeroE6/TMPRSS2 cells, strain TY11-927-P1; type: cell-based; conditions: for EC50 of single agent: VeroE6/TMPRSS2, 3 days; for EC50: Severe acute respiratory syndrome coronavirus 2, VeroE6/TMPRSS2, 72 h, single agent
SARS-CoV-2 3CL Protease = SARS-CoV-2 3CL Protease (Severe acute respiratory syndrome coronavirus 2 (2019-nCoV) (SARS-CoV-2), UniProt P0DTD1); experiment: biochemical; type: biochemical
[4] = single agent, hCoV-19/Japan/TY/WK-521/2020
[5] = Severe acute respiratory syndrome coronavirus 2, 72 h, single agent, hCoV-19/Japan/TY/WK-521/2020, VeroE6/TMPRSS2, 1000 TCID50/well, 3 days
[6] = recombinant enzyme, RapidFire MS, class symbols, read-out: IC50
[7] = read-out: 50% SARS-CoV-2 3CL protease inhibitory concentration (IC50)
[8] = Severe acute respiratory syndrome coronavirus 2, VeroE6/TMPRSS2, 72 h, single agent, hCoV-19/Japan/TY7-501/2021, […]

| Compound | EC50 (SARS-CoV-2) | other results |
| --- | --- | --- |
| Cn1cc2cc(Nc3nc(=O)n(-c4cncc5ccccc45)c(=O)n3Cc3cc(F)c(F)c(F)c3)c(Cl)cc2n1 [Compound I-014] | < 1000 nM | – |
| Casirivimab: anti-SARS-CoV-2 monoclonal antibody | – | EC50 of single agent [1, 4]: 0.077 [μg/mL] |
| CC(C)(C)[C@H](NC(=O)C(F)(F)F)C(=O)N1C[C@H]2[C@@H]([C@H]1C(=O)N[C@H](C#N)C[C@@H]1CCNC1=O)C2(C)C [PF-07321332, reference compound] | – | EC50 [1, 5]: 7100 nM |
| Cn1cnc(Cn2c(=O)nc(Nc3cc4cn(C(F)F)nc4cc3Cl)n(Cc3cc(F)c(F)c(F)c3)c2=O)n1 [Compound I-030] | 1000 to 10000 nM | – |
| Cn1cc2cc(Nc3nc(=O)n(-c4cncc5ccccc45)c(=O)n3Cc3ccc(F)c(C#N)c3)c(F)cc2n1 [Compound I-025] | < 1000 nM | – |
| Cc1cncc(-n2c(=O)nc(Nc3cc4cn(C(F)F)nc4cc3Cl)n(Cc3ccc(F)c(C#N)c3)c2=O)c1 [Compound I-026] | < 1000 nM | – |
| Cn1cnc(Cn2c(=O)nc(Nc3cc4cn(CC(F)F)nc4cc3Cl)n(Cc3cc(F)c(F)c(F)c3)c2=O)n1 [Compound I-029] | < 1000 nM | – |
| Cn1cnc(Cn2c(=O)nc(Nc3cc4cn(CCO)nc4cc3Cl)n(Cc3cc(F)c(F)c(F)c3)c2=O)n1 [Compound I-028] | 1000 to 10000 nM | – |
| O=c1nc(NO)ccn1[C@@H]1O[C@H](CO)[C@@H](O)[C@H]1O [EIDD-1931, reference compound] | – | EC50 ([1]; read-out: EC50 of single agent): 690 nM; EC50 ([2]; read-out: EC50 of single agent): 1500 nM |
| Sotrovimab: anti-SARS-CoV-2 monoclonal antibody | – | EC50 of single agent [3]: 1.06(μg/mL) |
| Cn1cc2cc(Nc3nc(=O)n(-c4cncc5ccccc45)c(=O)n3Cc3cc(F)c(F)c(F)c3)ccc2n1 [Compound I-016] | < 1000 nM | – |
| Cc1nc2cc(Cl)c(Nc3nc(=O)n(Cc4ncn(C)n4)c(=O)n3Cc3cc(F)c(F)c(F)c3)cc2n1C [Compound I-022] | 1000 to 10000 nM | – |
| O=c1nc(Nc2ccc3nn(CC(F)F)cc3c2)n(Cc2cc(F)c(F)c(F)c2)c(=O)n1-c1cncc2ccccc12 [Compound I-034] | < 1000 nM | – |
| Cc1cc2nn(C)cc2cc1Nc1nc(=O)n(-c2cncc3ccccc23)c(=O)n1Cc1ccc(F)c(C#N)c1 [Compound I-027] | < 1000 nM | – |
| N#Cc1cc(Cn2c(Nc3cc4cn(CCO)nc4cc3Cl)nc(=O)n(-c3cncc4ccccc34)c2=O)ccc1F [Compound I-031] | 1000 to 10000 nM | IC50 (SARS-CoV-2 3CL Protease; [6]): < 100 nM |
| Cc1cc2nn(C)cc2cc1Nc1nc(=O)n(-c2cncc3ccccc23)c(=O)n1Cc1cc(F)c(F)c(F)c1 [Compound I-013] | 1000 to 10000 nM | IC50 (SARS-CoV-2 3CL Protease; [6]): < 100 nM |
| Cc1cncc(-n2c(=O)nc(Nc3cc4cn(C)nc4cc3Cl)n(Cc3cc(F)c(F)c(F)c3)c2=O)c1 [Compound I-003] | – | EC50 [1, 5]: 177 nM; IC50 (SARS-CoV-2 3CL Protease; [7]): 14 nM |
| Cc1cncc(-n2c(=O)nc(Nc3cc4cn(C)nc4cc3F)n(Cc3ccc(F)c(C#N)c3)c2=O)c1 [Compound I-018] | < 1000 nM | – |

| Compound | EC50 (SARS-CoV-2) | other results |
| --- | --- | --- |
| Cn1cc2cc(Nc3nc(=O)n(-c4cncc5ccccc45)c(=O)n3Cc3ccc(F)c(C#N)c3)c(Cl)cc2n1 [Compound I-015] | < 1000 nM | – |
| Bebtelovimab: anti-SARS-CoV-2 monoclonal antibody | – | EC50 of single agent [3]: 0.0231(μg/mL) |
| CN(C)C(=O)COC(=O)Cc1ccc(OC(=O)c2ccc(NC(=N)N)cc2)cc1 [Camostatmesylate, reference compound] | – | EC50 [1, 5]: 1300 nM |
| N#Cc1cc(Cn2c(Nc3ccc4nn(CC(F)F)cc4c3)nc(=O)n(-c3cncc4ccccc34)c2=O)ccc1F [Compound I-009] | < 1000 nM | – |
| Cc1cncc(-n2c(=O)nc(Nc3cc4cn(C)nc4cc3C)n(Cc3cc(F)c(F)c(F)c3)c2=O)c1 [Compound I-004] | 1000 to 10000 nM | – |
| Imdevimab: anti-SARS-CoV-2 monoclonal antibody | – | EC50 of single agent [1, 4]: 0.047 [μg/mL] |
| Cc1cncc(-n2c(=O)nc(Nc3ccc4nn(CC(F)F)cc4c3)n(Cc3ccc(F)c(C#N)c3)c2=O)c1 [Compound I-011] | < 1000 nM | – |
| O=c1nc(Nc2cc3cn(CCN4CCOCC4)nc3cc2Cl)n(Cc2cc(F)c(F)c(F)c2)c(=O)n1-c1cncc2ccccc12 [Compound I-020] | 1000 to 10000 nM | – |
| N#Cc1cc(Cn2c(Nc3cc4cn(C(F)F)nc4cc3Cl)nc(=O)n(-c3cncc4ccccc34)c2=O)ccc1F [Compound I-024] | < 1000 nM | – |
| Cc1cncc(-n2c(=O)nc(Nc3cc4cn(C)nc4cc3F)n(Cc3cc(F)c(F)c(F)c3)c2=O)c1 [Compound I-002] | < 1000 nM | – |
| CCC(CC)COC(=O)[C@H](C)N[P@](=O)(OC[C@H]1O[C@@](C#N)(c2ccc3c(N)ncnn23)[C@H](O)[C@@H]1O)Oc1ccccc1 [Remdesivir, reference compound] | – | EC50 [3]: 2000 nM; EC50 ([1]; Severe acute respiratory syndrome coronavirus 2, VeroE6/TMPRSS2, 72 h, single agent, hCoV-19/Japan/TY/WK-521/2020, […]): 2500 nM; EC50 [2, 8]: 2300 nM |
| CC(=O)NCCn1cc2cc(Nc3nc(=O)n(-c4cncc5ccccc45)c(=O)n3Cc3cc(F)c(F)c(F)c3)c(Cl)cc2n1 [Compound I-033] | 1000 to 10000 nM | – |
| Cn1cnc(Cn2c(=O)[nH]/c(=N\c3cc4cn(C)nc4cc3Cl)n(Cc3cc(F)c(F)cc3F)c2=O)n1 | – | EC50 [3]: 410 nM; EC50 [1, 5]: 370 nM; EC50 [2, 8]: 500 nM |
| Cc1cncc(-n2c(=O)nc(Nc3cc4cn(C)nc4cc3Cl)n(Cc3cc(F)c(F)cc3F)c2=O)c1 [Compound I-012] | – | IC50 (SARS-CoV-2 3CL Protease; [7]): 9.1 nM |
| Cc1nc2cc(Cl)c(Nc3nc(=O)n(-c4cncc5ccccc45)c(=O)n3Cc3cc(F)c(F)c(F)c3)cc2n1C [Compound I-032] | 1000 to 10000 nM | IC50 (SARS-CoV-2 3CL Protease; [6]): < 100 nM |
| Cn1cnc(Cn2c(=O)nc(Nc3cc4cn(C)nc4cc3Cl)n(Cc3cc(F)c(F)c(F)c3)c2=O)n1 [Compound I-021] | < 1000 nM | – |
| Cc1cncc(-n2c(=O)nc(Nc3cc4cn(C)nc4cc3C)n(Cc3ccc(F)c(C#N)c3)c2=O)c1 [Compound I-019] | < 1000 nM | – |
